For assay [1], the target named is T1, Human PDGFRα, cytoplasmic domain (GST-PDGFRα) (Homo sapiens, UniProt P16234).
T1 construct: made in house
As to the kind of experiment: Human PDGFRα biochemical inhibition assay (off-chip Mobility Shift Assay).

Assay [2] concerns the target T2, Human PDGFRβ, cytoplasmic domain (GST-PDGFRβ) (Homo sapiens, UniProt P09619).
T2 construct: made in house
As to the kind of experiment: Human PDGFRβ biochemical inhibition assay (off-chip Mobility Shift Assay). A digest of the protocol: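 GST-tagged cytoplasmic domain (aa 557-1106) from baculovirus was incubated 1 h at room temperature with compound, CSKtide, ATP at Km and Mg²⁺ in HEPES buffer, pH 7.5. Phosphorylated and unphosphorylated peptide were separated by off-chip mobility shift, and the product ratio P/(P+S) gave percent inhibition.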

Some results are limits rather than exact numbers.

T2 sequence (P09619 with tags, fused parts or gaps): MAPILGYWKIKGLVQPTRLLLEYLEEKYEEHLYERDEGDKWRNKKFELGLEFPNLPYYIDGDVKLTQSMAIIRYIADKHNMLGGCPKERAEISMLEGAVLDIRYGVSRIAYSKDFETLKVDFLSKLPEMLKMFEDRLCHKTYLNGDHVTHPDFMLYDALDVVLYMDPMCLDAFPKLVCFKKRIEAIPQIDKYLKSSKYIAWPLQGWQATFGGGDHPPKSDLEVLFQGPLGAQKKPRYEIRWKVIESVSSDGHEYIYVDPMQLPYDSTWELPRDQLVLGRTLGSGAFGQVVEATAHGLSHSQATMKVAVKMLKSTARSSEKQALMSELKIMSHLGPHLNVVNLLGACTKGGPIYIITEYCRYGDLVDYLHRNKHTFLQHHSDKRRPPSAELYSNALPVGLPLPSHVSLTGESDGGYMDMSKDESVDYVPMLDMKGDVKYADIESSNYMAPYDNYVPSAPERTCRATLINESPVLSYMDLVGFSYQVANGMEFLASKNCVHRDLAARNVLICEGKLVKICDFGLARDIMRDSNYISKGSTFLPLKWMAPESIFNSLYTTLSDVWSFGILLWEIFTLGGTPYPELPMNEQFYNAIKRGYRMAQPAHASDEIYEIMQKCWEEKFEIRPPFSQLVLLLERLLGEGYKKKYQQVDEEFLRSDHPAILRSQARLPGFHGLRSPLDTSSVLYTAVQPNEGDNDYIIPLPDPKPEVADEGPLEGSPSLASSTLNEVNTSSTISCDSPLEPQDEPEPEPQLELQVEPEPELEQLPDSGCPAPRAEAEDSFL
T1 sequence (P16234 550-1089 T674I): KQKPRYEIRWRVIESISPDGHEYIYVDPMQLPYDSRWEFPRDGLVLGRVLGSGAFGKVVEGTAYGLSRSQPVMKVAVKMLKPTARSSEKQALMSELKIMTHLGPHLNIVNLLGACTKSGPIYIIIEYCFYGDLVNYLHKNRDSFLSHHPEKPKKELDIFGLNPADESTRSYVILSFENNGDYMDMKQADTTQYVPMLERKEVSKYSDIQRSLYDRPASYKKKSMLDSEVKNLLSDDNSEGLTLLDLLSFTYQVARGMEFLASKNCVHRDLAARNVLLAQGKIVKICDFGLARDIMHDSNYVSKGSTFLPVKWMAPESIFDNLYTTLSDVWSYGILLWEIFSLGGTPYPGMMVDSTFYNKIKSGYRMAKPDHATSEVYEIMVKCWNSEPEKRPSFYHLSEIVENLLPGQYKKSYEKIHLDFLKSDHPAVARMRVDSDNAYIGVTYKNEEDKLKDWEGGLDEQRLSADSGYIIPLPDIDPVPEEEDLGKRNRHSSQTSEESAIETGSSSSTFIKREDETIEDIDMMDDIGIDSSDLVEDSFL

Regarding `CCn1cc2ncc(N[C@@H](C)c3cccc(NC(=O)Cc4ccc(C5CCC5)cn4)c3)nc2n1` [Compound 711, (S)-2-(5-cyclobutylpyridin-2-yl)-N-(3-(1-((2-ethyl-2H-pyrazolo[3,4-b]pyrazin-6-yl)amino)ethyl)phenyl)acetamide], the IC50 in assay [1] is below 0.3 µM; in assay [2], at least 1 µM.
For `CCc1ccc(CC(=O)Nc2cccc([C@H](C)Nc3cnc4cn(CC)nc4n3)c2)nc1` [Compound 712, (S)-N-(3-(1-((2-ethyl-2H-pyrazolo[3,4-b]pyrazin-6-yl)amino)ethyl)phenyl)-2-(5-ethylpyridin-2-yl)acetamide], in that order: below 0.3 µM and at least 1 µM.
For `CCc1ccc(CC(=O)Nc2ccc(C)c([C@H](C)Nc3cnc4cn(CC)nc4n3)c2)nc1` [Compound 713, (S)-N-(3-(1-((2-ethyl-2H-pyrazolo[3,4-b]pyrazin-6-yl)amino)ethyl)-4-methylphenyl)-2-(5-ethylpyridin-2-yl) acetamide], in that order: below 0.3 µM and 0.3 to 1 µM.
Taken in the same sequence, the figures for `CCn1cc2ncc(N[C@@H](C)c3cccc(NC(=O)Cc4ccc(C)c(C)n4)c3)nc2n1` [Compound 716, (S)-2-(5,6-dimethylpyridin-2-yl)-N-(3-(1-((2-ethyl-2H-pyrazolo[3,4-b]pyrazin-6-yl)amino)ethyl)phenyl)acetamide] were below 0.3 µM and at least 1 µM.
`CCn1cc2ncc(N[C@@H](C)c3cc(NC(=O)Cc4ccc(C)c(C)n4)ccc3C)nc2n1` [Compound 717, (S)-2-(5,6-dimethylpyridin-2-yl)-N-(3-(1-((2-ethyl-2H-pyrazolo[3,4-b]pyrazin-6-yl)amino)ethyl)-4-methylphenyl) acetamide]: the IC50 in assay [1] and in assay [2] was below 0.3 µM in each case.
For `CCn1cc2ncc(N[C@@H](C)c3cccc(NC(=O)Cc4ccc5c(n4)CCC5)c3)nc2n1` [Compound 718, (S)-2-(6,7-dihydro-5H-cyclopenta[b]pyridin-2-yl)-N-(3-(1-((2-ethyl-2H-pyrazolo[3,4-b]pyrazin-6-yl)amino)ethyl)phenyl)acetamide], the values for the half-maximal inhibitory concentration (IC50) in assay [1] and in assay [2] were below 0.3 µM and at least 1 µM, respectively.
Taken in the same sequence, the figures for `CCn1cc2ncc(N[C@@H](C)c3cc(NC(=O)Cc4ccc5c(n4)CCC5)ccc3C)nc2n1` [Compound 719, (S)-2-(6,7-dihydro-5H-cyclopenta[b]pyridin-2-yl)-N-(3-(1-((2-ethyl-2H-pyrazolo[3,4-b]pyrazin-6-yl)amino)ethyl)-4-methylphenyl)acetamide] were below 0.3 µM and below 0.3 µM.
Take `CCn1cc2ncc(N[C@@H](C)c3cccc(NC(=O)Cc4ccc5c(n4)OCCC5)c3)nc2n1` [Compound 720, (S)-2-(3,4-dihydro-2H-pyrano[2,3-b]pyridin-7-yl)-N-(3-(1-((2-ethyl-2H-pyrazolo[3,4-b]pyrazin-6-yl)amino)ethyl)phenyl)acetamide]: the IC50 in assay [1] was below 0.3 µM; in assay [2], at least 1 µM.
Taken in the same sequence, the figures for `CCn1cc2ncc(N[C@@H](C)c3cc(NC(=O)Cc4ccc5c(n4)OCCC5)ccc3C)nc2n1` [Compound 721, (S)-2-(3,4-dihydro-2H-pyrano[2,3-b]pyridin-7-yl)N-(3-(1-((2-ethyl-2H-pyrazolo[3,4-b]pyrazin-6-yl)amino)ethyl)-4-methylphenyl)acetamide] were below 0.3 µM and at least 1 µM.
Taken in the same sequence, the figures for `CCn1cc2ncc(N[C@@H](C)c3cc(NC(=O)Cc4cc(CN5CCN(C)CC5)c(C)cn4)ccc3C)nc2n1` [Compound 722, (S)-N-(3-(1-((2-ethyl-2H-pyrazolo[3,4-b]pyrazin-6-yl)amino)ethyl)-4-methylphenyl)-2-(5-methyl-4-((4-methylpiperazin-1-yl)methyl)pyridin-2-yl)acetamide] were below 0.3 µM and at least 1 µM.
For `CCn1cc2ncc(N[C@@H](C)c3cccc(NC(=O)Cc4ccc5c(n4)CCCC5)c3)nc2n1` [Compound 723, (S)-N-(3-(1-((2-ethyl-2H-pyrazolo[3,4-b]pyrazin-6-yl)amino)ethyl)phenyl)-2-(5,6,7,8-tetrahydroquinolin-2-yl) acetamide], in that order: below 0.3 µM and at least 1 µM.
For `CCn1cc2ncc(N[C@@H](C)c3cc(NC(=O)Cc4ccc(C)cn4)c(F)cc3F)nc2n1` [Compound 724, (S)-N-(5-(1-((2-ethyl-2H-pyrazolo[3,4-b]pyrazin-6-yl)amino)ethyl)-2,4-difluorophenyl)-2-(5-methylpyridin-2-yl)acetamide], the IC50 is below 0.3 µM in assay [1] and at least 1 µM in assay [2].
As to `CCn1cc2ncc(N[C@@H](C)c3cc(NC(=O)Cc4ccc(F)c(CN5CCN(C)CC5)n4)ccc3C)nc2n1` [Compound 726, (S)-N-(3-(1-((2-ethyl-2H-pyrazolo[3,4-b]pyrazin-6-yl)amino)ethyl)-4-methylphenyl)-2-(5-fluoro-6-((4-methylpiperazin-1-yl)methyl)pyridin-2-yl)acetamide], the 50% inhibitory concentration (IC50) is below 0.3 µM in assay [1] and 0.3 to 1 µM in assay [2].
For `CCn1cc2ncc(N[C@@H](C)c3cc(NC(=O)Cc4cc(CN5CCCC5)c(C)cn4)ccc3C)nc2n1` [Compound 727, (S)-N-(3-(1-((2-ethyl-2H-pyrazolo[3,4-b]pyrazin-6-yl)amino)ethyl)-4-methylphenyl)-2-(5-methyl-4-(pyrrolidin-1-ylmethyl)pyridin-2-yl)acetamide], in that order: at least 1 µM and at least 1 µM.
For `CCn1cc2ncc(N[C@@H](C)c3cc(NC(=O)Cc4ccc5c(n4)CCCC5)ccc3C)nc2n1` [Compound 728, (S)-N-(3-(1-((2-ethyl-2H-pyrazolo[3,4-b]pyrazin-6-yl)amino)ethyl)-4-methylphenyl)-2-(5,6,7,8-tetrahydroquinolin-2-yl)acetamide], in that order: at least 1 µM and at least 1 µM.
For `C[C@H](Nc1cnc2cnn(C)c2n1)c1cccc(NC(=O)Nc2ccccc2)c1` [Compound 729, (S)-1-(3-(1-((1-methyl-1H-pyrazolo[3,4]pyrazin-6-yl)amino)ethyl)phenyl)-3-phenylurea], in that order: below 0.3 µM and below 0.3 µM.
On to `C[C@H](Nc1cnc2cnn(C)c2n1)c1cccc(NC(=O)Nc2cccnc2)c1` [Compound 730, (S)-1-(3-(1-((1-methyl-1H-pyrazolo[3,4-b]pyrazin-6-yl)amino)ethyl)phenyl)-3-(pyridin-3-yl)urea], for which the IC50 in assay [1] was below 0.3 µM; in assay [2] it was 0.3 to 1 µM.
For `Cc1cncc(NC(=O)Nc2cccc([C@H](C)Nc3cnc4cnn(C)c4n3)c2)c1` [Compound 731, (S)-1-(3-(1-((1-methyl-1H-pyrazolo[3,4-b]pyrazin-6-yl)amino)ethyl)phenyl)-3-(5-methylpyridin-3-yl)urea], in that order: below 0.3 µM and below 0.3 µM.
For `CCn1cc2ncc(N[C@@H](C)c3cccc(NC(=O)Nc4cncc(C)c4)c3)nc2n1` [Compound 732, (S)-1-(3-(1-((2-ethyl-2H-pyrazolo[3,4-b]pyrazin-6-yl)amino)ethyl)phenyl)-3-(5-methylpyridin-3-yl)urea], in that order: below 0.3 µM and 0.3 to 1 µM.
Taken in the same sequence, the figures for `CCn1cc2ncc(N[C@@H](C)c3cccc(NC(=O)Nc4cnn(C(C)C)c4)c3)nc2n1` [Compound 733, (S)-1-(3-(1-((2-ethyl-2H-pyrazolo[3,4-b]pyrazin-6-yl)amino)ethyl)phenyl)-3-(1-isopropyl-1H-pyrazol-4-yl)urea] were below 0.3 µM and 0.3 to 1 µM.
For `CCn1cc2ncc(N[C@@H](C)c3cccc(NC(=O)Nc4cnc(C5CC5)c(C)c4)c3)nc2n1` [Compound 734, (S)-1-(6-cyclopropyl-5-methylpyridin-3-yl)-3-(3-(1-((2-ethyl-2H-pyrazolo[3,4-b]pyrazin-6-yl)amino)ethyl)phenyl)urea], the IC50 in assay [1] and in assay [2] was below 0.3 µM each time.
Turning to `CCn1cc2ncc(N[C@@H](C)c3cccc(NC(=O)Nc4cc(C)ccn4)c3)nc2n1` [Compound 735, (S)-1-(3-(1-((2-ethyl-2H-pyrazolo[3,4-b]pyrazin-6-yl)amino)ethyl)phenyl)-3-(4-methylpyridin-2-yl)urea], the half-inhibitory concentration (IC50) in assay [1] and in assay [2] was below 0.3 µM in each case.
Regarding `CCn1cc2ncc(N[C@@H](C)c3cccc(NC(=O)Nc4ccc(C(F)(F)F)nc4)c3)nc2n1` [Compound 736, (S)-1-(3-(1-((2-ethyl-2H-pyrazolo[3,4-b]pyrazin-6-yl)amino)ethyl)phenyl)-3-(6-(trifluoromethyl)pyridin-3-yl) urea], the 50% inhibitory concentration (IC50) in assay [1] and in assay [2] was below 0.3 µM throughout.
With `CCn1cc2ncc(N[C@@H](C)c3cccc(NC(=O)Nc4ccc(C5CC5)nc4)c3)nc2n1` [Compound 737, (S)-1-(6-cyclopropylpyridin-3-yl)-3-(3-(1-((2-ethyl-2H-pyrazolo[3,4-b]pyrazin-6-yl)amino)ethyl)phenyl)urea], the IC50 in assay [1] and in assay [2] was below 0.3 µM in each case.
Consider `CCn1cc2ncc(N[C@@H](C)c3cccc(NC(=O)Nc4ccc(NC)nc4)c3)nc2n1` [Compound 738, (S)-1-(3-(1-((2-ethyl-2H-pyrazolo[3,4-b]pyrazin-6-yl)amino)ethyl)phenyl)-3-(6-(methylamino)pyridin-3-yl)urea], for which the IC50 was 0.3 to 1 µM in assay [1] and at least 1 µM in assay [2].
For `CCn1cc2ncc(N[C@@H](C)c3cccc(NC(=O)Nc4ccc(N(C)C)nc4)c3)nc2n1` [Compound 739, (S)-1-(6-(dimethylamino)pyridin-3-yl)-3-(3-(1-((2-ethyl-2H-pyrazolo[3,4-b]pyrazin-6-yl)amino)ethyl)phenyl)urea], in that order: below 0.3 µM and at least 1 µM.
For `CCn1cc2ncc(N[C@@H](C)c3cccc(NC(=O)Nc4cnn(CC(C)C)c4)c3)nc2n1` [Compound 740, (S)-1-(3-(1-((2-ethyl-2H-pyrazolo[3,4-b]pyrazin-6-yl)amino)ethyl)phenyl)-3-(1-isobutyl-1H-pyrazol-4-yl)urea], in that order: below 0.3 µM and 0.3 to 1 µM.

The term IC50 denotes the midpoint of a concentration-inhibition curve.
